Measured values taken from patent US11827628B2, “Compositions and methods for inhibition of the JAK pathway” (Rigel Pharmaceuticals, Inc., priority 2005, dated 2023).
Where a name gives a salt, the structure may show the parent alone. Read-outs that look alike come from different tables or passages of the source.

System: up-regulation of ICAM-1 (CD54) by IFNγ in U937 human monocytic cells
Assay: U937 IFNγ ICAM1 FACS Assay
Assay type: cell-based
Conditions: U937 cells stimulated with IFNγ, ICAM-1 expression by FACS, read-out: IC50, Example 44
Method in brief: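 U937 cells in 10% FCS RPMI were preincubated 30 min at 37 °C with an 8-point, 3-fold compound dilution series in duplicate, then stimulated with IFNγ for 18–24 h. Surface ICAM-1 was stained with APC anti-ICAM-1 and read by flow cytometry as geometric mean on live-gated cells. EC50 was derived.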

Molecule	IC50	IC50 (dihydrochloride)
NS(=O)(=O)c1cccc(Nc2ncc(F)c(Nc3ccc(OCc4ccccn4)cc3)n2)c1 [Compound I-196, N2-(3-Aminosulfonylphenyl)-5-fluoro-N4-4-[(2-pyridinyl)methyleneoxyphenyl]-2,4-pyrimidinediamine Hydrochloride Salt]	0.754 µM	
CNS(=O)(=O)c1cc(Nc2ncc(F)c(Nc3ccc(Cn4ccnc4)cc3)n2)ccc1C [III-86, 5-Fluoro-N2-[3-(N-methylaminosulfony)-4-methylphenyl]-N4-[4-(1-imidazolylmethyl)phenyl]-2,4-pyrimidinediamine dihydrochloride]		6.45 µM
NS(=O)(=O)c1cccc(Nc2ncc(F)c(Nc3ccc(OCC(F)(F)F)cc3)n2)c1 [VI-47, N2-(3-Aminosulfonylphenyl)-5-fluoro-N4-(4-trifluoromethylmethyleneoxyphenyl)-2,4-pyrimidinediamine]	0.596 µM	
Cc1ccc(Nc2ncc(F)c(Nc3ccc4c(c3)c(CC#N)cn4C)n2)cc1S(N)(=O)=O [IX-20]	2.9 µM	
Cc1ccc(Nc2ncc(F)c(Nc3ccc(OCc4cccnc4)cc3)n2)cc1S(N)(=O)=O [Compound I-189, N2-(3-Aminosulfonyl-4-methylphenyl)-5-fluoro-N4-[4-(3-pyridinyl)methyleneoxyphenyl]-2,4-pyrimidinediamine]	0.508 µM	
Cc1cc(COc2ccc(Nc3nc(Nc4ccc(C)c(S(N)(=O)=O)c4)ncc3F)cc2)[nH]n1 [Compound I-197, N2-(3-Aminosulfonyl-4-methylphenyl)-5-fluoro-N4-[4-(3-methyl-(1H)-pyrazol-5-yl)methyleneoxyphenyl]-2,4-pyrimidinediamine]	1.28 µM	
CN1C(=O)CSc2ccc(Nc3nc(Nc4cccc(S(=O)(=O)N5CCCCC5)c4)ncc3F)cc21 [VII-50, 5-Fluoro-N4-(4-methyl-3-oxo-benz[1,4]thiazin-6-yl)-N2-(3-pipendinosulfonylphenyl)-2,4-pyrimidinediamine]	5.06 µM	
CN1CCN(c2ccc(Nc3ncc(F)c(Nc4ccc(OCC#N)cc4)n3)cc2S(N)(=O)=O)CC1 [Compound I-9, N2-[3-Aminosulfonyl-4-(4-methylpiperazin-1-yl)phenyl]-5-fluoro-N4-(4-cyanomethyleneoxyphenyl)-2,4-pyrimidinediamine]	0.787 µM	
NS(=O)(=O)c1ccc(Nc2ncc(F)c(Nc3ccc(OCc4ccccn4)cc3)n2)cc1 [Compound I-163, N2-(4-Aminosulfonylphenyl)-5-fluoro-N4-[4-(2-pyridinyl)methyleneoxyphenyl]-2,4-pyrimidinediamine]	1.41 µM	
N2-(3-Aminosulphonylphenyl)-5-fluoro-N4-[4-(3-pyridinylmethyl)benzo[1,4]oxazin-7-yl]-2,4-pyrimidinediamine [VII-56]	1.93 µM	
COc1ccc(Nc2nc(Nc3cc(C)c4c(c3)S(=O)(=O)NC=N4)ncc2F)cc1Cl [VIII-3, N4-(3-Chloro-4-methoxyphenyl)-5-fluoro-N2-(5-methyl-2H-1,1-dioxo-1,2,4-benzothiadiazin-7-yl)-2,4-pyrimidinediamine]	10.1 µM	
Cc1ccc(Nc2ncc(F)c(Nc3ccc4c(ccn4CC#N)c3)n2)cc1S(N)(=O)=O [IX-8, N2-(3-Aminosulfonyl-4-methylphenyl)-N4-(1-cyanomethyleneindol-5-yl)-5-fluoro-2,4-pyrimidinediamine]	0.543 µM	
Cc1ccc(Nc2ncc(F)c(Nc3ccc(OC(C)(C)C(N)=O)cc3)n2)cc1S(N)(=O)=O [Compound I-127, N4-[4-(1-Aminocarbonyl-1-methyl)ethoxy]phenyl-N2-(3-aminosulfonyl-4-methyl)phenyl-5-fluoro-2,4-pyrimidinediamine]	2.51 µM	
CNS(=O)(=O)c1cc(Nc2ncc(F)c(Nc3ccc(-c4ccccn4)c(OCF)c3)n2)ccc1C [Compound I-173, 5-Fluoro-N2-[3-N-(methyl)aminosulfonyl-4-methylphenyl]-N4-[4-(2-pyridinyl)-3-fluoromethyleneoxyphenyl]-2,4-pyrimidinediamine]	15.5 µM	
NS(=O)(=O)c1cccc(Nc2ncc(F)c(Nc3ccc(OCc4cccnc4)cc3)n2)c1 [Compound I-188, N2-(3-Aminosulfonylphenyl)-5-fluoro-N4-[4-(3-pyridinyl)methyleneoxyphenyl]-2,4-pyrimidinediamine]	0.5 µM	
Cc1ccc(Nc2ncc(F)c(Nc3cccc(OCc4cccnc4)c3)n2)cc1S(N)(=O)=O [Compound I-183, N2-(3-Aminosulfonyl-4-methylphenyl)-5-fluoro-N4-[3-(3-pyridinyl)methyleneoxyphenyl]-2,4-pyrimidinediamine]	2.28 µM	

Further molecules by falling IC50, results first:

IC50	IC50 (dihydrochloride)	Molecule
15.7 µM		Cc1cc(Nc2nc(Nc3ccc(S(N)(=O)=O)cc3)ncc2F)cc(C)c1OC(C)C(N)=O (racemic) [Compound I-122, Racemic N4-[4-(1-Aminocarbonyl)ethoxy-3,5-dimethyl]phenyl-N2-(4-aminosulfonyl)phenyl-5-fluoro-2,4-pyrimidinediamine]
13.5 µM		Cc1cc(Nc2nc(Nc3ccc(S(N)(=O)=O)cc3)ncc2F)ccc1OCC(N)=O [Compound I-113, N4-(4-Aminocarbonylmethoxy-3-methyl)phenyl-N2-(4-aminosulfonyl)phenyl-5-fluoro-2,4-pyrimidinediamine]
11.9 µM		Cc1cc(Nc2nc(Nc3ccc(S(N)(=O)=O)cc3)ncc2F)ccc1OC(C)C(N)=O (racemic) [Compound I-119, Racemic N4-[4-(1-Aminocarbonyl)ethoxy-3-methyl]phenyl-N2-(4-aminosulfonyl)phenyl-5-fluoro-2,4-pyrimidinediamine]
6.96 µM		CNC(=O)N1CCc2ccc(Nc3nc(Nc4ccc(C)c(S(N)(=O)=O)c4)ncc3F)cc2C1 [VII-17, N2-(3-Aminosulfonyl-4-methylphenyl)-5-fluoro-N4-[2-(methylaminocarbonyl)-1,2,3,4-tetrahydroisoquin-7-yl]-2,4-pyrimidinediamine]
6.25 µM		CN(C)C(=O)C1Cc2cc(Nc3nc(Nc4ccc(Cl)c(S(N)(=O)=O)c4)ncc3F)ccc2O1 (racemic) [VII-27, Racemic N2-(3-Aminosulfonyl-4-chlorophenyl)-N4-[2-(N,N-dimethylaminocarbonyl)-2,3-dihydrobenzofuran-5-yl]-5-fluoro-2,4-pyrimidinediamine]
6.03 µM		CS(=O)(=O)N1CCc2cc(Nc3nc(Nc4ccc(S(N)(=O)=O)cc4)ncc3F)ccc21 [VII-63]
4.46 µM		Cc1cc(Nc2nc(Nc3cccc(S(N)(=O)=O)c3)ncc2F)ccc1OC(C)C(N)=O (racemic) [Compound I-120, Racemic N4-[4-(1-Aminocarbonyl)ethoxy-3-methyl]phenyl-N2-(3-aminosulfonyl)phenyl-5-fluoro-2,4-pyrimidinediamine]
3.53 µM		CCN(CC)CCNS(=O)(=O)c1ccc(Nc2ncc(F)c(Nc3cccc(OCc4cccnc4)c3)n2)cc1 [Compound I-186, N2-[4-(2-N,N-Diethylaminoethyl)aminosulfonylphenyl)-5-fluoro-N4-[3-(3-pyridinyl)methyleneoxyphenyl]-2,4-pyrimidinediamine]
3.37 µM		Cc1ccc(Nc2ncc(F)c(Nc3ccc4[nH]cc(CC#N)c4c3)n2)cc1S(=O)(=O)NC1CCN(C)CC1 [IX-19, N4-(3-cyanomethylene-1H-indol-5yl)-5-fluoro-N2-[3-(1-methyl-4-aminopiperadine)sulfonyl-4-methylphenyl]-2,4-pyrimidinediamine]
1.98 µM		N2-[3-Aminosulfonyl-4-(4-methylpiperazine-1-yl)phenyl]-N4-(3-cyanomethylene-1H-indol-6-yl)-5-fluoro-2,4-pyrimidinediamine [IX-17]
1.85 µM		N#CCn1ccc2cc(Nc3nc(Nc4cccc(S(N)(=O)=O)c4)ncc3F)ccc21 [IX-5, N2-(3-Aminosulfonylphenyl)-N4-(1-cyanomethyleneindol-5-yl)-5-fluoro-2,4-pyrimidinediamine]
1.67 µM		N2-(3-Aminosulphonylphenyl)-5-fluoro-N4-[4-(3-pyridinylmethyl)benzo[1,4]oxazin-7-yl]-2,4-pyrimidinediamine [VII-55]
1.33 µM		Cc1ccc(Nc2ncc(F)c(Nc3cc(C)c(OC(C)C(N)=O)c(C)c3)n2)cc1S(N)(=O)=O (racemic) [Compound I-124, Racemic N4-[4-(1-Aminocarbonyl)ethoxy-3,5-dimethyl]phenyl-N2-(3-aminosulfonyl-4-methyl)phenyl-5-fluoro-2,4-pyrimidinediamine]
1.26 µM		CNC(=O)N1CCCc2cc(Nc3nc(Nc4ccc(C)c(S(N)(=O)=O)c4)ncc3F)ccc21 [VII-19, N2-(3-Aminosulfonyl-4-methylphenyl)-5-fluoro-N4-[1-(methylaminocarbonyl)-1,2,3,4-tetrahydroquin-6-yl]-2,4-pyrimidinediamine]
0.923 µM		Cc1ccc(Nc2ncc(F)c(Nc3ccc(OCc4ccccn4)cc3)n2)cc1S(N)(=O)=O [Compound I-160, N2-(3-Aminosulfonyl-4-methylphenyl)-5-fluoro-N4-[4-(2-pyridinyl)methyleneoxyphenyl]-2,4-pyrimidinediamine]
0.329 µM		Cc1ccc(Nc2ncc(F)c(Nc3ccc(OCC#N)c(F)c3)n2)cc1S(N)(=O)=O [Compound I-11, N2-(3-Aminosulfonyl-4-methylphenyl)-5-fluoro-N4-(4-cyanomethyleneoxy-3-fluorophenyl)-2,4-pyrimidinediamine]
0.222 µM		N#CCOc1ccc(Nc2nc(Nc3cccc(S(N)(=O)=O)c3)ncc2F)cc1F [Compound I-12, N2-(3-Aminosulfonylphenyl)-5-fluoro-N4-(4-cyanomethyleneoxy-3-fluorophenyl)-2,4-pyrimidinediamine]
0.117 µM		Cc1cnc(Nc2cccc(S(N)(=O)=O)c2)nc1Nc1ccc(OCc2ccccn2)cc1 [Compound I-179, N2-(3-Aminosulfonylphenyl)-5-methyl-N4-[4-(2-pyridinyl)methyleneoxyphenyl]-2,4-pyrimidinediamine]
